Test results as given in patent US8471005B2 (Cephalon, Inc., priority 2008, dated 2013).
pIC50: −log10 of the molar value. Where two headings read alike, the source gives them in different places.

Columns and labels:
ALK = biological target: T1, ALK (Homo sapiens, UniProt Q9UM73); experiment: ALK Kinase Assay (ELISA/TRF, PLC-γ substrate); format: biochemical; details: read-out: ALK Potency
T1 construct: host or cells: baculovirus expression system
Method in brief: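 IC50 values derive from percent inhibition plotted against log10 compound concentration and fitted to a variable-slope sigmoidal equation. The underlying reaction used 30 ng/ml ALK acting on immobilized PLC-γ (10 μg/mL in TBS) at 37° C for 15 minutes, read with Eu-N1 PT66 antibody.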

JAK2 = biological target: T2, JAK2 (Homo sapiens, UniProt O60674); experiment: Recombinant Human JAK2 Kinase Assay (TRF); format: biochemical; details: read-out: JAK2 Potency
T2 construct: host or cells: baculovirus expression system
T2 sequence (O60674 whole entry): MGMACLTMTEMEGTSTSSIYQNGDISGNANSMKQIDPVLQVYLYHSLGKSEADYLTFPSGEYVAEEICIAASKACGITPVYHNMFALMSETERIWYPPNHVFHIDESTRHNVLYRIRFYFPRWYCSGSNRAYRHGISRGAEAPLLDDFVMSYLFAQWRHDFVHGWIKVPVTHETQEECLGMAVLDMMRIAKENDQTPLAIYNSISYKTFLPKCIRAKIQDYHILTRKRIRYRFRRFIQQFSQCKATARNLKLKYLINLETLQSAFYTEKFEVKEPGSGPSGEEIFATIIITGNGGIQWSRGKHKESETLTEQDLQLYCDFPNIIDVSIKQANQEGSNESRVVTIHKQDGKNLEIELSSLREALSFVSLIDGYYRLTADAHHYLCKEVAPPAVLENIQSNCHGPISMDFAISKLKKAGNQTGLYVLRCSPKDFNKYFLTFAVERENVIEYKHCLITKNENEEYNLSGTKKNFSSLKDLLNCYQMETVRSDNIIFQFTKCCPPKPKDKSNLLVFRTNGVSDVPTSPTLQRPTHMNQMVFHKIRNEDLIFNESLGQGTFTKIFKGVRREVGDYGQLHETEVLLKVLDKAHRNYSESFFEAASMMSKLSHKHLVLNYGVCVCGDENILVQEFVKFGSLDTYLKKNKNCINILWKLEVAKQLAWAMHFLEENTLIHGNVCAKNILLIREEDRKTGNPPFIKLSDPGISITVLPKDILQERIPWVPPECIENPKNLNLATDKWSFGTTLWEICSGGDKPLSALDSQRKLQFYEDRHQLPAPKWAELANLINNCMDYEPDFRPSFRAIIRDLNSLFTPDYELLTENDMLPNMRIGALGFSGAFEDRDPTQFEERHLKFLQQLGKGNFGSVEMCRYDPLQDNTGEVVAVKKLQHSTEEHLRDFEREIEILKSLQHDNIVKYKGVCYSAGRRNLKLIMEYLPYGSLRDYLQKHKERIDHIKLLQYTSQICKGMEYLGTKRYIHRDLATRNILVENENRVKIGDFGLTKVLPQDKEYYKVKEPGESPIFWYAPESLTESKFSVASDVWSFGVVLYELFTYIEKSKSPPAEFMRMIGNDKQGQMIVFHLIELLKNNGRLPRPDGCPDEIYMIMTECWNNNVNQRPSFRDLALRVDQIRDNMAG
Method in brief: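 Kinase activity of baculovirus-expressed JAK2 is followed on a surface-immobilised biotinylated peptide, with the reaction run for 20 min at room temperature in buffer containing 0.2 μM ATP and manganese. Phosphorylation is read with Eu-N1 PY100 antibody.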

[1] = ALK kinase inhibition, 1 μM ATP
[2] = JAK2 kinase inhibition, 0.2 μM ATP

T1 sequence (Q9UM73 19-1620): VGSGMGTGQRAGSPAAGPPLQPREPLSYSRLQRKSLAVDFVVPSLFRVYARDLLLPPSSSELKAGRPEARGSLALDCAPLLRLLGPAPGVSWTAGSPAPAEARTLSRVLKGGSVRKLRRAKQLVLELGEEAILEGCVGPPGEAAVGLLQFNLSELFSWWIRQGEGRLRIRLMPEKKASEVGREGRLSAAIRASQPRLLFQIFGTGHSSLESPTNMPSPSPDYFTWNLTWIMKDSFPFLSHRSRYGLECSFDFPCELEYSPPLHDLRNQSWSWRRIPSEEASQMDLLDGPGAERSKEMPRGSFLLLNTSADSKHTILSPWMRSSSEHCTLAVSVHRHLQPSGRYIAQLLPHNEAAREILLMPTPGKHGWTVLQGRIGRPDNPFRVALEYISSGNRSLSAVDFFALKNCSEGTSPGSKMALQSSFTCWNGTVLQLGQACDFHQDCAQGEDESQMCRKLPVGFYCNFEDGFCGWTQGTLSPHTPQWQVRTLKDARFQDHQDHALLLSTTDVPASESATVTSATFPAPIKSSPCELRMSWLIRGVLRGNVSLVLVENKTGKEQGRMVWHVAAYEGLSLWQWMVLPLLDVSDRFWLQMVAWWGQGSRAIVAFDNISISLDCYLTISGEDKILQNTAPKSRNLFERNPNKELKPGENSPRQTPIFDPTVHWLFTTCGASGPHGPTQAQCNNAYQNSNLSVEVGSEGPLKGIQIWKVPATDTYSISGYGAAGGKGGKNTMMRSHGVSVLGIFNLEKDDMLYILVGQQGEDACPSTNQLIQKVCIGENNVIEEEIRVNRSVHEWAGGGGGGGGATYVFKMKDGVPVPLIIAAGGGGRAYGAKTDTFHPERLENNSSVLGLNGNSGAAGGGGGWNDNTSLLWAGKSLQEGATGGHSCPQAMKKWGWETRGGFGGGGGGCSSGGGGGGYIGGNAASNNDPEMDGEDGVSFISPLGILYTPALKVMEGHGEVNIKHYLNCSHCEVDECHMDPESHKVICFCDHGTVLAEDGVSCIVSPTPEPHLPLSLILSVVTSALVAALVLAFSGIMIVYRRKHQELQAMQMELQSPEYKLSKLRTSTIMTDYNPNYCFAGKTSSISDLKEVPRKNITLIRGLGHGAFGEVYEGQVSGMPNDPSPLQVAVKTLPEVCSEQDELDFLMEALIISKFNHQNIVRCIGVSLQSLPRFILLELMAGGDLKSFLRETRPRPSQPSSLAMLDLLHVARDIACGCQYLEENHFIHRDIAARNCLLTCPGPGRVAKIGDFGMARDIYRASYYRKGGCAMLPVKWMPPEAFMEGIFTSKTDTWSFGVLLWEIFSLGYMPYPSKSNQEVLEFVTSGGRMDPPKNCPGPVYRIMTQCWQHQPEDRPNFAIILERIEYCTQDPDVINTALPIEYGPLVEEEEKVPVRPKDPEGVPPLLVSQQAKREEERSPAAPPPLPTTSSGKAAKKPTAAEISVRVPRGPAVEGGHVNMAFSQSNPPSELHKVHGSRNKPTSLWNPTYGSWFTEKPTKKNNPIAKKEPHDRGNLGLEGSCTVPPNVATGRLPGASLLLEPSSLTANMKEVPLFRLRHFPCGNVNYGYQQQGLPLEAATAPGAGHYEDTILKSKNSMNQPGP

| Compound | pIC50 (ALK; ALK Kinase Inhibition) | pIC50 (JAK2; JAK2 Kinase Inhibition) | pIC50 (ALK; [1]) | pIC50 (JAK2; [2]) |
| --- | --- | --- | --- | --- |
| COc1cc(N(C)C(=O)CN2CCN(C)CC2)ccc1Nc1ncc2ccc(-c3ccccc3OC)n2n1 [Example 474, N-{3-Methoxy-4-[7-(2-methoxy-phenyl)-pyrrolo[2,1-f][1,2,4]triazin-2-ylamino]-phenyl}-N-methyl-2-(4-methyl-piperazin-1-yl)-acetamide] |  |  | > 7.00 | 5.00 to 6.00 |
| COc1cc2c(cc1Nc1ncc3ccc(-c4cccc5c4OCC5)n3n1)CCCC(N1CCN(CCO)CC1)C2 (stereo not shown) [Example 707, 2-(4-{2-[7-(2,3-Dihydro-benzofuran-7-yl)-pyrrolo[2,1-f][1,2,4]triazin-2-ylamino]-3-methoxy-6,7,8,9-tetrahydro-5H-benzocyclohepten-6-yl}-piperazin-1-yl)-ethanol] |  |  | > 7.00 | 6.00 to 7.00 |
| CS(=O)(=O)Nc1cccc(-c2ccc3cnc(Nc4ccc(N5CCC(N6CCOCC6)CC5)cc4)nn23)c1 [Example 636, N-(3-{2-[4-(4-Morpholin-4-yl-piperidin-1-yl)-phenylamino]-pyrrolo[2,1-f][1,2,4]triazin-7-yl}-phenyl)-methanesulfonamide] |  |  | 6.00 to 7.00 | > 7.00 |
| N#Cc1ccc2cnc(Nc3ccc(N4CCOCC4)cc3)nn12 [Example 51, 2-(4-Morpholin-4-yl-phenylamino)-pyrrolo[2,1-f][1,2,4]triazine-7-carbonitrile] | < 5.00 | > 7.00 |  |  |
| CC(C)(C)NS(=O)(=O)c1cccc(-c2ccc3cnc(Nc4ccc(C5CN(CC(N)=O)C5)cc4)nn23)c1 [Example 577, 2-(3-{4-[7-(3-tert-Butylsulfamoyl-phenyl)-pyrrolo[2,1-f][1,2,4]triazin-2-ylamino]-phenyl}-azetidin-1-yl)-acetamide] |  |  | 6.00 to 7.00 | > 7.00 |
| CS(=O)(=O)Nc1ccc(-c2ccc3cnc(Nc4ccc(N5CCOCC5)cc4)nn23)cc1 [Example 200, N-{4-[2-(4-Morpholin-4-yl-phenylamino)-pyrrolo[2,1-f][1,2,4]triazin-7-yl]-phenyl}-methanesulfonamide] | 6.00 to 7.00 | > 7.00 |  |  |
| COc1cc(C2CCN(CCO)CC2)ccc1Nc1ncc2ccc(-c3cccc(S(=O)(=O)NC(C)(C)C)c3)n2n1 [Example 694, N-tert-Butyl-3-(2-{4-[1-(2-hydroxy-ethyl)-piperidin-4-yl]-2-methoxy-phenylamino}-pyrrolo[2,1-f][1,2,4]triazin-7-yl)-benzenesulfonamide] |  |  | > 7.00 | 6.00 to 7.00 |
| OCCN1CCN(c2cccc(Nc3ncc4ccc(-c5cccc(Cl)c5)n4n3)c2)CC1 [Example 179, 2-(4-{3-[7-(3-Chloro-phenyl)-pyrrolo[2,1-f][1,2,4]triazin-2-ylamino]-phenyl}-piperazin-1-yl)-ethanol] | > 7.00 | > 7.00 |  |  |
| COc1ccc(Cl)cc1-c1ccc2cnc(Nc3cccc(N4CCN(CCO)CC4)c3)nn12 [Example 180, 2-(4-{3-[7-(5-Chloro-2-methoxy-phenyl)-pyrrolo[2,1-f][1,2,4]triazin-2-ylamino]-phenyl}-piperazin-1-yl)-ethanol] | > 7.00 | > 7.00 |  |  |
| COc1ncccc1-c1ccc2cnc(Nc3ccc(N4CCN(C)CC4)cc3)nn12 [Example 22, [7-(2-Methoxy-pyridin-3-yl)-pyrrolo[2,1-f][1,2,4]triazin-2-yl]-[4-(4-methyl-piperazin-1-yl)-phenyl]-amine] | > 7.00 | > 7.00 |  |  |
| COc1ccccc1-c1c(C)c(C)c2cnc(Nc3ccc(N4CCOCC4)cc3)nn12 [Example 112, [7-(2-Methoxy-phenyl)-5,6-dimethyl-pyrrolo[2,1-f][1,2,4]triazin-2-yl]-(4-morpholin-4-yl-phenyl)-amine] | 6.00 to 7.00 | > 7.00 |  |  |
| CN1CCN(c2ccc(Nc3ncc4c(-c5ccccc5Cl)ccn4n3)cc2)CC1 [Example 40, [5-(2-Chloro-phenyl)-pyrrolo[2,1-f][1,2,4]triazin-2-yl]-[4-(4-methyl-piperazin-1-yl)-phenyl]-amine] | < 5.00 | 5.00 to 6.00 |  |  |
| O=C(c1ccc(Nc2ncc3ccc(-c4cccnc4)n3n2)cc1)N1CCOCC1 [Example 317, Morpholin-4-yl-[4-(7-pyridin-3-yl-pyrrolo[2,1-f][1,2,4]triazin-2-ylamino)-phenyl]-methanone] | 5.00 to 6.00 | > 7.00 |  |  |

Second part, the molecule after the results:

| pIC50 (ALK; ALK Kinase Inhibition) | pIC50 (JAK2; JAK2 Kinase Inhibition) | pIC50 (ALK; [1]) | pIC50 (JAK2; [2]) | Compound |
| --- | --- | --- | --- | --- |
| 6.00 to 7.00 | > 7.00 |  |  | C[C@H](O)CN1CCN(c2cc(F)c(Nc3ncc4ccc(-c5ccccc5N(C)S(C)(=O)=O)n4n3)cc2F)CC1 [Example 1482, N-[2-(2-{2,5-Difluoro-4-[4-((S)-2-hydroxy-propyl)-piperazin-1-yl]-phenylamino}-pyrrolo[2,1-f][1,2,4]triazin-7-yl)-phenyl]-N-methyl-methanesulfonamide] |
|  |  | < 5.00 | > 7.00 | Cn1cnc2cc(Nc3ncc4ccc(-c5cccc(S(=O)(=O)NC(C)(C)C)c5)n4n3)ccc21 [Example 1332, N-tert-Butyl-3-[2-(1-methyl-1H-benzimidazol-5-ylamino)-pyrrolo[2,1-f][1,2,4]triazin-7-yl]-benzenesulfonamide] |
|  |  | < 5.00 | 6.00 to 7.00 | CC(=O)N1CCc2ccc(Nc3ncc4ccc(-c5cccc(C(=O)NC(C)(C)C)c5)n4n3)cc21 [Example 887, 3-[2-(1-Acetyl-2,3-dihydro-1H-indol-6-ylamino)-pyrrolo[2,1-f][1,2,4]triazin-7-yl]-N-tert-butyl-benzamide] |
|  |  | 5.00 to 6.00 | > 7.00 | CN(c1ccccc1-c1ccc2cnc(Nc3ccc4cnn(CCN5CCOCC5)c4c3)nn12)S(C)(=O)=O [Example 1334, N-Methyl-N-(2-{2-[1-(2-morpholin-4-yl-ethyl)-1H-indazol-6-ylamino]-pyrrolo[2,1-f][1,2,4]triazin-7-yl}-phenyl)-methanesulfonamide] |
| > 7.00 | > 7.00 |  |  | COc1cc(N2CCC(N3CCOCC3)CC2)ccc1Nc1ncc2ccc(-c3ccccc3N(CC3CC3)S(C)(=O)=O)n2n1 [Example 1461, N-Cyclopropylmethyl-N-(2-{2-[2-methoxy-4-(4-morpholin-4-yl-piperidin-1-yl)-phenylamino]-pyrrolo[2,1-f][1,2,4]triazin-7-yl}-phenyl)-methanesulfonamide] |
|  |  | 6.00 to 7.00 | > 7.00 | COc1ccccc1-c1ccc2cnc(Nc3cccc(OCCN4CCOCC4)c3)nn12 [Example 1003, [7-(2-Methoxy-phenyl)-pyrrolo[2,1-f][1,2,4]triazin-2-yl]-[3-(2-morpholin-4-yl-ethoxy)-phenyl]-amine] |
|  |  | 6.00 to 7.00 | > 7.00 | COc1ccc(-c2ccc3cnc(Nc4ccc(N5CCC(CO)CC5)cc4)nn23)cn1 [Example 1102, (1-{4-[7-(6-Methoxy-pyridin-3-yl)-pyrrolo[2,1-f][1,2,4]triazin-2-ylamino]-phenyl}-piperidin-4-yl)-methanol] |
|  |  | 6.00 to 7.00 | 5.00 to 6.00 | COc1cc(C2CCNCC2)ccc1Nc1ncc2ccc(N3CC(c4ccccc4)CC3=O)n2n1 (stereo not shown) [Example 719, 1-[2-(2-Methoxy-4-piperidin-4-yl-phenylamino)-pyrrolo[2,1-f][1,2,4]triazin-7-yl]-4-phenyl-pyrrolidin-2-one] |
|  |  | 5.00 to 6.00 | > 7.00 | CC(=O)Nc1cccc(Nc2ncc3ccc(-c4cccn4CCC#N)n3n2)c1 [Example 1294, N-(3-{7-[1-(2-Cyano-ethyl)-1H-pyrrol-2-yl]-pyrrolo[2,1-f][1,2,4]triazin-2-ylamino}-phenyl)-acetamide] |
| > 7.00 | 6.00 to 7.00 |  |  | COc1cc2c(cc1Nc1ncc3ccc(-c4ccccc4OC)n3n1)C(=O)CC1(CCN(C)CC1)O2 [Example 1491] |
|  |  | > 7.00 | > 7.00 | COc1cc(N2CCN(C[C@@H](C)O)CC2)ccc1Nc1ncc2ccc(-c3ccccc3OC)n2n1 [Example 754, (R)-1-(4-{3-Methoxy-4-[7-(2-methoxy-phenyl)-pyrrolo[2,1-f][1,2,4]triazin-2-ylamino]-phenyl}-piperazin-1-yl)-propan-2-ol] |
|  |  | 5.00 to 6.00 | > 7.00 | O=S(=O)(c1cccc(-c2ccc3cnc(Nc4ccc(-c5cccnc5)cc4)nn23)c1)N1CCOCC1 [Example 1090, {7-[3-(Morpholine-4-sulfonyl)-phenyl]-pyrrolo[2,1-f][1,2,4]triazin-2-yl}-(4-pyridin-3-yl-phenyl)-amine] |
| 6.00 to 7.00 | > 7.00 |  |  | COc1ncccc1-c1ccc2cnc(Nc3ccc4c(c3)CCN(CC(=O)N(C)C)CC4)nn12 [Example 1572] |
|  |  | > 7.00 | > 7.00 | COc1cc(N2CCC(N(C)CCO)CC2)ccc1Nc1ncc2ccc(-c3ccccc3OC)n2n1 [Example 796, 2-[(1-{3-Methoxy-4-[7-(2-methoxy-phenyl)-pyrrolo[2,1-f][1,2,4]triazin-2-ylamino]-phenyl}-piperidin-4-yl)-methyl-amino]-ethanol] |
|  |  | > 7.00 | > 7.00 | CCN(CC)C1CCN(c2ccc(Nc3ncc4ccc(-c5ccccc5N(C)S(C)(=O)=O)n4n3)cc2)CC1 [Example 1204, N-(2-{2-[4-(4-Diethylamino-piperidin-1-yl)-phenylamino]-pyrrolo[2,1-f][1,2,4]triazin-7-yl}-phenyl)-N-methyl-methanesulfonamide] |
|  |  | > 7.00 | 6.00 to 7.00 | CCN(c1ccccc1-c1ccc2cnc(Nc3ccc(C4CCN(C[C@@H](C)O)CC4)cc3OC)nn12)S(C)(=O)=O [Example 873, N-Ethyl-N-[2-(2-{4-[1-((R)-2-hydroxy-propyl)-piperidin-4-yl]-2-methoxy-phenylamino}-pyrrolo[2,1-f][1,2,4]triazin-7-yl)-phenyl]-methanesulfonamide] |
